From US20260215428A1, “WEED CONTROL METHOD” (SYNGENTA CROP PROTECTION AG, priority 2023, published 2026)

Tests used:
Assay type in all cases: in vivo
[1] = test system: Lolium multiflorum; experiment: Glasshouse post-emergence test, visual damage, Table B1-1
Method: Seeds of a variety of test species are sown in standard soil in pots. For each treatment, three replicate pots containing 10-15 plants per one-inch pot were sprayed at the 2-3 leaf stage. Clethodim and Compound (Ic) were each applied at 15, 30, 60 and 120 g ai/ha. The test plants are then grown in a glasshouse under controlled conditions in a glasshouse (at 24/16° C., day/night; 14 hours light; 65% humidity) and watered twice daily. […]

[2] = test system: Setaria viridis; experiment: Glasshouse post-emergence test, visual damage, Table B1-5; conditions: 14 days after application
Method: Seeds of a variety of test species are sown in standard soil in pots. For each treatment, three replicate pots containing 10-15 plants per one-inch pot were sprayed at the 2-3 leaf stage. Clethodim and Compound (Ic) were each applied at 15, 30, 60 and 120 g ai/ha. The test plants are then grown in a glasshouse under controlled conditions in a glasshouse (at 24/16° C., day/night; 14 hours light; 65% humidity) and watered twice daily. Plants were assessed for visual damage compared to the untreated control 14 days after application (0=0% damage; 100=100% damage).

[3] = test system: Lolium multiflorum; experiment: Further glasshouse test versus other ACCase-inhibiting herbicides, Table B2-1; conditions: 21 days after application
From the text: Further tests were employed to test the efficacy of a compound of Formula I versus other ACCase-inhibiting herbicides. The five main targets were Lolium multiflorum, Eleusine indica, Digitaria insularis, Sorghum halepense and Echinochloa crus-galli. Collectively, the populations contained all the major target-site resistance mutations affecting ACCase herbicides. Two L. multiflorum (LM-NTSR-1 and LM-NTSR-2) and one E. crus-galli (ECG-NTSR-1) populations were characterised exclusively by non-target-site resistance (“NTSR”). The target-site resistant L. multiflorum and E. indication populations were 100% homozygous for different ACCase mutations whilst the D. insularis, S. halepense and E. crus-galli samples contained a mixture of homozygous wild and mutant individuals at different genotypic frequencies. Additional underlying NTSR cannot be ruled out in the populations characterised by target-site resistance.
Around 50 seeds of each of the 24 weed populations were sown in 12-cm pots containing a mixture of peat and compost in a 1:1 ratio. The pots were watered, fertilised and kept in controlled glasshouse conditions set at 24° C./16 hr day, 18° C. night, 65% relative humidity, and a photon flux density of approximately 250 μmol quanta m^−2 s^−1 for Lolium multiflorum. The E. indica, D. insularis, S. halepense and E. crus-galli plants were kept in a separate glasshouse bay characterised by a 17 H photoperiod of 180 μmol m^−2 s^−1 with temperatures of 25° C. day and 19° C. night and 65% relative humidity. When the plants were at the two to four-leaf stage, they were treated with the various ACCase-inhibiting herbicides at 0, 15, 30, 60, 120 and 240 g ai ha^−1 in a spray cabinet mounted with a single mobile Teejet flat fan nozzle (11002VS) calibrated to deliver 200 L ha^−1 at 200 kPa. The L. multiflorum populations were treated by a compound of Formula Ic, clodinafop-propargyl, pinoxaden, cycloxydim and clethodim and the warm season grass weeds E. indica, D. insularis, S. halepense and E. crus-galli were sprayed with a Compound Ic and the commonly employed haloxyfop-methyl and clethodim. Three replicate pots were used per population. Plants were assessed for visual damage compared to the untreated control 21 days after application (0=0% damage; 100=100% damage).

SMILES: CC#Cc1ccc(C2=C(OC(=O)OC)C3CCC(C3)C2=O)c(OC)c1 (stereo not drawn) [Compound Ic]
- visual damage ([1]; biotype CC2027 (homozygous), 15 g/ha, 14 days after application): 100%
- visual damage ([1]; biotype CC2027 (homozygous), 30 g/ha, 14 days after application): 100%
- visual damage ([1]; biotype CC2027 (homozygous), 60 g/ha, 14 days after application): 100%
- visual damage ([1]; biotype CC2027 (homozygous), 120 g/ha, 14 days after application): 100%
- visual damage ([1]; biotype GG2078 (homozygous), 15 g/ha, 14 days after application): 40%
- visual damage ([1]; biotype GG2078 (homozygous), 30 g/ha, 14 days after application): 100%
- visual damage ([1]; biotype GG2078 (homozygous), 60 g/ha, 14 days after application): 100%
- visual damage ([1]; biotype GG2078 (homozygous), 120 g/ha, 14 days after application): 100%
- visual damage ([1]; biotype LL1781 (homozygous), 15 g/ha, 14 days after application): 100%
- visual damage ([1]; biotype LL1781 (homozygous), 30 g/ha, 14 days after application): 100%
- visual damage ([1]; biotype LL1781 (homozygous), 60 g/ha, 14 days after application): 100%
- visual damage ([1]; biotype LL1781 (homozygous), 120 g/ha, 14 days after application): 100%
- visual damage ([1]; biotype NN2041 (homozygous), 15 g/ha, 14 days after application): 47%
- visual damage ([1]; biotype NN2041 (homozygous), 30 g/ha, 14 days after application): 100%
- visual damage ([1]; biotype NN2041 (homozygous), 60 g/ha, 14 days after application): 100%
- visual damage ([1]; biotype NN2041 (homozygous), 120 g/ha, 14 days after application): 100%
- visual damage ([1]; biotype RR2088 (homozygous), 15 g/ha, 14 days after application): 100%
- visual damage ([1]; biotype RR2088 (homozygous), 30 g/ha, 14 days after application): 100%
- visual damage ([1]; biotype RR2088 (homozygous), 60 g/ha, 14 days after application): 100%
- visual damage ([1]; biotype RR2088 (homozygous), 120 g/ha, 14 days after application): 100%
- visual damage ([1]; biotype SS1999 (homozygous), 15 g/ha, 21 DAA): 85%
- visual damage ([1]; biotype SS1999 (homozygous), 30 g/ha, 21 DAA): 100%
- visual damage ([1]; biotype SS1999 (homozygous), 60 g/ha, 21 DAA): 100%
- visual damage ([1]; biotype SS1999 (homozygous), 120 g/ha, 21 DAA): 100%
- visual damage ([1]; biotype Sensitive, 15 g/ha, 14 days after application): 100%
- visual damage ([1]; biotype Sensitive, 30 g/ha, 14 days after application): 100%
- visual damage ([1]; biotype Sensitive, 60 g/ha, 14 days after application): 100%
- visual damage ([1]; biotype Sensitive, 120 g/ha, 14 days after application): 100%
- visual damage ([2]; biotype GG2078 (homozygous), 15 g/ha): 50%
- visual damage ([2]; biotype GG2078 (homozygous), 30 g/ha): 73%
- visual damage ([2]; biotype GG2078 (homozygous), 60 g/ha): 98%
- visual damage ([2]; biotype GG2078 (homozygous), 120 g/ha): 98%
- visual damage ([2]; biotype II1781 (homozygous), 15 g/ha): 70%
- visual damage ([2]; biotype II1781 (homozygous), 30 g/ha): 90%
- visual damage ([2]; biotype II1781 (homozygous), 60 g/ha): 98%
- visual damage ([2]; biotype II1781 (homozygous), 120 g/ha): 100%
- visual damage ([2]; biotype LL1781 (homozygous), 15 g/ha): 60%
- visual damage ([2]; biotype LL1781 (homozygous), 30 g/ha): 90%
- visual damage ([2]; biotype LL1781 (homozygous), 60 g/ha): 98%
- visual damage ([2]; biotype LL1781 (homozygous), 120 g/ha): 100%
- visual damage ([2]; biotype Sensitive, 15 g/ha): 87%
- visual damage ([2]; biotype Sensitive, 30 g/ha): 93%
- visual damage ([2]; biotype Sensitive, 60 g/ha): 100%
- visual damage ([2]; biotype Sensitive, 120 g/ha): 100%
- visual damage ([3]; biotype C2088R, 15 g/ha): 100%
- visual damage ([3]; biotype C2088R, 30 g/ha): 100%
- visual damage ([3]; biotype C2088R, 60 g/ha): 100%
- visual damage ([3]; biotype C2088R, 120 g/ha): 100%
- visual damage ([3]; biotype C2088R, 240 g/ha): 100%
- visual damage ([3]; biotype D2078G, 15 g/ha): 20%
- visual damage ([3]; biotype D2078G, 30 g/ha): 90%
- visual damage ([3]; biotype D2078G, 60 g/ha): 100%
- visual damage ([3]; biotype D2078G, 120 g/ha): 100%
- visual damage ([3]; biotype D2078G, 240 g/ha): 100%
- visual damage ([3]; biotype I1781L, 15 g/ha): 100%
- visual damage ([3]; biotype I1781L, 30 g/ha): 100%
- visual damage ([3]; biotype I1781L, 60 g/ha): 100%
- visual damage ([3]; biotype I1781L, 120 g/ha): 100%
- visual damage ([3]; biotype I1781L, 240 g/ha): 100%
- visual damage ([3]; biotype Sensitive, 15 g/ha): 100%
- visual damage ([3]; biotype Sensitive, 30 g/ha): 100%
- visual damage ([3]; biotype Sensitive, 60 g/ha): 100%
- visual damage ([3]; biotype Sensitive, 120 g/ha): 100%
- visual damage ([3]; biotype Sensitive, 240 g/ha): 100%
- visual damage ([3]; biotype W1999S, 15 g/ha): 85%
- visual damage ([3]; biotype W1999S, 30 g/ha): 100%
- visual damage ([3]; biotype W1999S, 60 g/ha): 100%
- visual damage ([3]; biotype W1999S, 120 g/ha): 100%
- visual damage ([3]; biotype W1999S, 240 g/ha): 100%
- visual damage ([3]; biotype W2027C, 15 g/ha): 88%
- visual damage ([3]; biotype W2027C, 30 g/ha): 100%
- visual damage ([3]; biotype W2027C, 60 g/ha): 100%
- visual damage ([3]; biotype W2027C, 120 g/ha): 100%
- visual damage ([3]; biotype W2027C, 240 g/ha): 100%
- visual damage ([3]; population LM-NTSR-1 (non-target-site resistance), 15 g/ha): 93%
- visual damage ([3]; population LM-NTSR-1 (non-target-site resistance), 30 g/ha): 100%
- visual damage ([3]; population LM-NTSR-1 (non-target-site resistance), 60 g/ha): 100%
- visual damage ([3]; population LM-NTSR-1 (non-target-site resistance), 120 g/ha): 100%
- visual damage ([3]; population LM-NTSR-1 (non-target-site resistance), 240 g/ha): 100%
- visual damage ([3]; population LM-NTSR-2 (non-target-site resistance), 15 g/ha): 48%
- visual damage ([3]; population LM-NTSR-2 (non-target-site resistance), 30 g/ha): 82%
- visual damage ([3]; population LM-NTSR-2 (non-target-site resistance), 60 g/ha): 87%
- visual damage ([3]; population LM-NTSR-2 (non-target-site resistance), 120 g/ha): 100%
- visual damage ([3]; population LM-NTSR-2 (non-target-site resistance), 240 g/ha): 100%
